Measurements taken from ChEMBL document CHEMBL1139533, “Structure-activity relationship studies of a series of antiviral and antibacterial aglycon derivatives of the glycopeptide antibiotics vancomycin, eremomycin, and dechloroeremomycin” (J Med Chem, 2005).
≈ marks a conversion by molar mass, not a printed value.

Experiments:
[1] = tested on: Staphylococcus epidermidis; experiment: Minimum inhibitory concentration against 533 Staphylococcus epidermidis; type: functional
C3H/3T3 = experiment: Minimal cytotoxic concentration to cause an alteration in C3H/3T3 cell line morphology; type: functional; details: Mus musculus
Enterococcus faecalis [2] = experiment: Minimum inhibitory concentration against 559 glycopeptide susceptible enterococci Enterococcus faecalis; type: functional
Enterococcus faecium [3] = experiment: Minimum inhibitory concentration against glycopeptide resistant enterococci 569 Enterococcus faecium; type: functional
Enterococcus faecalis [4] = experiment: Minimum inhibitory concentration against glycopeptide resistant enterococci 560 Enterococcus faecalis; type: functional
Enterococcus faecium [5] = experiment: Minimum inhibitory concentration against glycopeptide susceptible enterococci 568 Enterococcus faecium; type: functional
[6] = tested on: Staphylococcus haemolyticus; experiment: Minimum inhibitory concentration against 602 Staphylococcus haemolyticus; type: functional
Staphylococcus aureus [7] = experiment: Minimum inhibitory concentration against glycopeptide intermediate-resistant 3797 Staphylococcus aureus; type: functional
Staphylococcus aureus [8] = experiment: Minimum inhibitory concentration against glycopeptide intermediate-resistant 3798 Staphylococcus aureus; type: functional
MOLT-4 = experiment: Cytostatic activity to the compound against Molt4/C8 cell line; type: functional, cell-based; details: Homo sapiens
[9] = tested on: Human immunodeficiency virus 2; experiment: Effective concentration against human immunodeficiency virus type 2; type: functional, organism-based
[10] = tested on: Human immunodeficiency virus 1; experiment: Effective concentration against human immunodeficiency virus type 1; type: functional, organism-based
CCRF-CEM = experiment: Cytostatic activity to the compound against CEM cell line; type: functional, cell-based; details: Homo sapiens
L1210 = experiment: Cytostatic activity against L1210 cell line; type: functional, cell-based; details: Mus musculus
[11] = tested on: Moloney murine sarcoma virus; experiment: Effective concentration against Moloney sarcoma virus; type: functional, organism-based, Viruses

Row | SMILES | MIC [1] [µg/mL] | MCC (C3H/3T3) [µg/mL] | MIC (Enterococcus faecalis [2]) [µg/mL] | MIC (Enterococcus faecium [3]) [µg/mL] | MIC (Enterococcus faecalis [4]) [µg/mL] | MIC (Enterococcus faecium [5]) [µg/mL] | MIC [6] [µg/mL] | MIC (Staphylococcus aureus [7]) [µg/mL] | MIC (Staphylococcus aureus [8]) [µg/mL] | IC50 (MOLT-4) [µM] | EC50 [9] [µM] | EC50 [10] [µM] | IC50 (CCRF-CEM) [µM] | IC50 (L1210) [µM] | EC50 [11] [µM]
1 | NC(=O)C[C@@H]1NC(=O)[C@H](N)[C@H](O)c2ccc(c(Cl)c2)Oc2cc3cc(c2O)Oc2ccc(cc2)[C@@H](O)[C@@H]2NC(=O)[C@H](NC(=O)[C@@H]3NC1=O)c1ccc(O)c(c1)-c1c(O)cc(O)cc1[C@@H](C(=O)O)NC2=O | > 128 | ≥ 100 | > 128 | > 128 | > 128 | > 128 | > 128 | > 128 | > 128 | > 250 | > 250 | 115 | > 250 | > 250 | > 100
2 | NCCCCCCCCCCNC(=O)[C@H]1NC(=O)[C@H]2NC(=O)[C@H](NC(=O)[C@@H]3NC(=O)[C@H](CC(N)=O)NC(=O)[C@H](N)[C@H](O)c4ccc(c(Cl)c4)Oc4cc3cc(c4O)Oc3ccc(cc3Cl)[C@H]2O)c2ccc(O)c(c2)-c2c(O)cc(O)cc21 | > 32 | 100 | > 64 | > 64 | > 64 | > 64 | > 32 | > 32 | > 32 | ≥ 250 | ≥ 25 | ≥ 25 | 139 | > 250 | 9.3
3 | CN[C@H](CC(C)C)C(=O)N[C@H]1C(=O)N[C@@H](CC(N)=O)C(=O)N[C@H]2C(=O)N[C@H]3C(=O)N[C@H](C(=O)N[C@H](C(=O)O)c4cc(O)cc(O)c4-c4cc3ccc4O)[C@H](O)c3ccc(cc3)Oc3cc2cc(c3O)Oc2ccc(cc2)[C@H]1O | 32 (≈ 29.8 µM) | ≥ 100 | 32 (≈ 29.8 µM) | > 64 | > 64 | 32 (≈ 29.8 µM) | > 32 | > 32 | > 32 | > 250 | > 125 | > 125 | > 250 | > 250 | ≥ 100
4 | NC(=O)C[C@@H]1NC(=O)[C@H](N)[C@H](O)c2ccc(c(Cl)c2)Oc2cc3cc(c2O)Oc2ccc(cc2Cl)[C@@H](O)[C@@H]2NC(=O)[C@H](NC(=O)[C@@H]3NC1=O)c1ccc(O)c(c1)-c1c(O)cc(O)cc1[C@@H](C(=O)O)NC2=O | > 128 | > 100 | > 128 | > 128 | > 128 | > 128 | > 128 | > 128 | > 128 | > 250 | ≥ 125 | ≥ 125 | ≥ 250 | > 250 | 88
5 | CN[C@H](CC(C)C)C(=O)N[C@H]1C(=O)N[C@@H](CC(N)=O)C(=O)N[C@H]2C(=O)N[C@H]3C(=O)N[C@H](C(=O)N[C@H](C(=O)NCC45CC6CC(CC(C6)C4)C5)c4cc(O)cc(O)c4-c4cc3ccc4O)[C@H](O)c3ccc(cc3)Oc3cc2cc(c3O)Oc2ccc(cc2Cl)[C@H]1O | 8 (≈ 6.37 µM) | 100 | 4 (≈ 3.18 µM) | 8 (≈ 6.37 µM) | 8 (≈ 6.37 µM) | 8 (≈ 6.37 µM) | 8 (≈ 6.37 µM) | 8 (≈ 6.37 µM) | 8 (≈ 6.37 µM) | 126 | 7 | 1.6 | 148 | 94 | 12
6 | NC(=O)C[C@@H]1NC(=O)[C@H](N)[C@H](O)c2ccc(c(Cl)c2)Oc2cc3cc(c2O)Oc2ccc(cc2Cl)[C@@H](O)[C@@H]2NC(=O)[C@H](NC(=O)[C@@H]3NC1=O)c1ccc(O)c(c1)-c1c(O)cc(O)cc1[C@@H](C(=O)NCC13CC4CC(CC(C4)C1)C3)NC2=O | > 32 | ≥ 100 | > 64 | > 64 | > 64 | > 64 | > 32 | > 32 | > 32 | 178 | 30 | 20 | ≥ 250 | ≥ 250 | 27
7 | CN[C@H](CC(C)C)C(=O)N[C@H]1C(=O)N[C@@H](CC(N)=O)C(=O)N[C@H]2C(=O)N[C@H]3C(=O)N[C@H](C(=O)N[C@H](C(=O)NCC45CC6CC(CC(C6)C4)C5)c4cc(O)cc(O)c4-c4cc3ccc4O)[C@H](O)c3ccc(cc3)Oc3cc2cc(c3O)Oc2ccc(cc2)[C@H]1O | 8 (≈ 6.54 µM) | 100 | 8 (≈ 6.54 µM) | 16 (≈ 13.1 µM) | 16 (≈ 13.1 µM) | 4 (≈ 3.27 µM) | 16 (≈ 13.1 µM) | 8 (≈ 6.54 µM) | 16 (≈ 13.1 µM) | 44 | 12 | 8.5 | 165 | 58 | 11
8 | CN[C@H](CC(C)C)C(=O)N[C@H]1C(=O)N[C@@H](CC(N)=O)C(=O)N[C@H]2C(=O)N[C@H]3C(=O)N[C@H](C(=O)N[C@H](C(=O)NC4C5CC6CC(C5)CC4C6)c4cc(O)cc(O)c4-c4cc3ccc4O)[C@H](O)c3ccc(cc3)Oc3cc2cc(c3O)Oc2ccc(cc2Cl)[C@H]1O (stereo not given in full) | 16 (≈ 12.9 µM) | 20 | 8 (≈ 6.44 µM) | 32 (≈ 25.7 µM) | 32 (≈ 25.7 µM) | 16 (≈ 12.9 µM) | 16 (≈ 12.9 µM) | 16 (≈ 12.9 µM) | 16 (≈ 12.9 µM) | > 250 | 20 | 8.5 | > 250 | > 250 | > 4
9 | CN[C@H](CC(C)C)C(=O)N[C@H]1C(=O)N[C@@H](CC(N)=O)C(=O)N[C@H]2C(=O)N[C@H]3C(=O)N[C@H](C(=O)N[C@H](C(=O)NC4C5CC6CC(C5)CC4C6)c4cc(O)cc(O)c4-c4cc3ccc4O)[C@H](O)c3ccc(cc3)Oc3cc2cc(c3O)Oc2ccc(cc2)[C@H]1O (stereo not given in full) | 16 (≈ 13.2 µM) | 100 | 16 (≈ 13.2 µM) | 32 (≈ 26.5 µM) | 32 (≈ 26.5 µM) | 8 (≈ 6.62 µM) | 16 (≈ 13.2 µM) | 16 (≈ 13.2 µM) | 16 (≈ 13.2 µM) | 185 | 21.7 | 8.5 | 185 | 129 | 14
10 | CN[C@H](CC(C)C)C(=O)N[C@H]1C(=O)N[C@@H](CC(N)=O)C(=O)N[C@H]2C(=O)N[C@H]3C(=O)N[C@H](C(=O)N[C@H](C(=O)NCCCCCCCCCCN)c4cc(O)cc(O)c4-c4cc3ccc4O)[C@H](O)c3ccc(cc3)Oc3cc2cc(c3O)Oc2ccc(cc2Cl)[C@H]1O | 8 (≈ 6.33 µM) | 20 | 8 (≈ 6.33 µM) | 32 (≈ 25.3 µM) | 32 (≈ 25.3 µM) | 8 (≈ 6.33 µM) | 8 (≈ 6.33 µM) | 8 (≈ 6.33 µM) | 8 (≈ 6.33 µM) | 196 | 25 | 8.5 | 202 | ≥ 250 | > 4
11 | CN[C@H](CC(C)C)C(=O)N[C@H]1C(=O)N[C@@H](CC(N)=O)C(=O)N[C@H]2C(=O)N[C@H]3C(=O)N[C@H](C(=O)N[C@H](C(=O)NCCCCCCCCCCN)c4cc(O)cc(O)c4-c4cc3ccc4O)[C@H](O)c3ccc(cc3)Oc3cc2cc(c3O)Oc2ccc(cc2)[C@H]1O | 16 (≈ 13 µM) | 100 | 16 (≈ 13 µM) | 64 (≈ 52.1 µM) | 32 (≈ 26 µM) | 8 (≈ 6.51 µM) | 16 (≈ 13 µM) | 16 (≈ 13 µM) | 16 (≈ 13 µM) | 106 | > 25 | 15 | 109 | 146 | 14
